Ten compounds from US20240076293A1, “Compositions and Methods for Inhibiting Fibrosis, Inflammation and Cancer” (Georgia Tech Research Corporation, priority 2020, published 2024) can be followed below.

Assay type in all cases: cell-based
A short description of data set [1]: Anti-proliferation IC50, MRC-5. The following applies: human, MRC-5 cells; Table 1, compounds of formula I; NI = no inhibition up to 500 μM.
The subject of another data set is A549. In words: Anti-proliferation IC50, A549. The note with it: Homo sapiens.
Another data set relates to Hep-G2. In words: Anti-proliferation IC50, Hep-G2. The following applies: Homo sapiens, HepG2.
The subject of the next data set is VERO. In words: Anti-proliferation IC50, VERO. The following applies: Chlorocebus sabaeus.
A further data set has as its system MDA-MB-231. Description: Anti-proliferation IC50, MDA-MB-231. The note with it: Homo sapiens.
For a further data set, the system named is MCF-7. In words: Anti-proliferation IC50, MCF-7. The note with it: Homo sapiens, MCF7.
Another data set relates to MRC-5. Description: Anti-proliferation IC50, MRC-5. The following applies: Homo sapiens, MRC5; Table 2, compounds of formula II.
Where [2] appears, read: Table 1, compounds of formula I, NI = no inhibition up to 500 μM, read-out: A549 (IC50).
[3] abbreviates: Table 1, compounds of formula I, NI = no inhibition up to 500 μM, read-out: Hep-G2 (IC50).
Where [4] appears, read: Table 1, compounds of formula I, NI = no inhibition up to 500 μM, read-out: VERO (IC50).
The mark [5] stands for this setting: Table 1, compounds of formula I, NI = no inhibition up to 500 μM, read-out: MDA-MB-231 (IC50).
[6] abbreviates: Table 1, compounds of formula I, NI = no inhibition up to 500 μM, read-out: MCF-7 (IC50).
[7] abbreviates: Table 2, compounds of formula II, read-out: Anti-proliferation IC50 A549.
The mark [8] stands for this setting: Table 2, compounds of formula II, read-out: Anti-proliferation IC50 Hep-G2.
Where [9] appears, read: Table 2, compounds of formula II, read-out: Anti-proliferation IC50 VERO.
The mark [10] stands for this setting: Table 2, compounds of formula II, read-out: Anti-proliferation IC50 MDA-MB-231.
The mark [11] stands for this setting: Table 2, compounds of formula II, read-out: Anti-proliferation IC50 MCF-7.

Where a name gives a salt, the structure may show the parent alone. Read-outs that look alike come from different tables or passages of the source. Some results are limits rather than exact numbers.

Regarding `CCCCOC(=O)/C=C/C(=O)N(C)[C@@H]1C[C@H](C)O[C@H](O[C@@H]2[C@H](C)[C@H](O[C@H]3C[C@@](C)(OC)[C@@H](O)[C@H](C)O3)[C@H](C)C(=O)O[C@H](CC)[C@@](C)(O)[C@@H](O)[C@@H](C)C(=O)[C@H](C)C[C@@]2(C)OC)[C@H]1O`, the IC50 in data set [1] is 44.9 ± 0.6 µM; in the data set on A549 (setting [2]), over 500 µM; in the data set on Hep-G2 (setting [3]), 209 ± 11.2 µM; in the data set on VERO (setting [4]), 68.3 ± 16.8 µM; with MDA-MB-231 (setting [5]), 28.4 ± 3.9 µM; with MCF-7 (setting [6]), 72.3 ± 5.2 µM.

For the compound `CC[C@@H]1OC(=O)[C@@H](C)[C@H](O[C@H]2C[C@@](C)(OC)[C@@H](O)[C@H](C)O2)[C@@H](C)[C@H](O[C@@H]2O[C@H](C)C[C@H](N(C)C)[C@H]2OC(=O)CCCC[C@H]2CCSS2)C(C)(O)C[C@H](C)CN(C)[C@@H](C)[C@H](O)[C@@]1(C)O` (stereo partly drawn), the IC50 amounted to 13.4 ± 0.4 µM with MRC-5; 23 ± 0.5 µM in the data set on A549 (setting [7]); 29.5 ± 4.4 µM with Hep-G2 (setting [8]); 54.5 ± 0.8 µM in the data set on VERO (setting [9]); 45 ± 1.3 µM in the data set on MDA-MB-231 (setting [10]); 38.2 ± 0.8 µM in the data set on MCF-7 (setting [11]).

As to `CC[C@H]1OC(=O)[C@H](C)[C@@H](O[C@H]2C[C@@](C)(OC)[C@@H](O)[C@H](C)O2)[C@H](C)[C@@H](O[C@@H]2O[C@H](C)C[C@H](N(C)C(=O)CCCC[C@H]3CCSS3)[C@H]2O)[C@](C)(O)C[C@@H](C)CN(C)[C@H](C)[C@@H](O)[C@]1(C)O`, the IC50 in the data set with MRC-5 amounted to 20.2 ± 3.7 µM; in the data set with A549 (setting [7]) it was 18.8 ± 4.1 µM; in the data set on Hep-G2 (setting [8]) it was 13.6 ± 0.1 µM; in the data set on VERO (setting [9]), 24.4 ± 2.4 µM; with MDA-MB-231 (setting [10]), 11.9 ± 1.7 µM; in the data set on MCF-7 (setting [11]) it was 11.2 µM.

`CC[C@@H]1OC(=O)[C@@H](C)[C@H](O[C@H]2C[C@@](C)(OC)[C@@H](O)[C@H](C)O2)[C@@H](C)[C@H](O[C@H]2O[C@@H](C)C[C@@H](N(C)Cc3ccc(-c4cn(CCNC(=O)CCCC[C@H]5CCSS5)nn4)cc3)[C@@H]2O)C(C)(O)C[C@H](C)CN(C)[C@@H](C)[C@H](O)[C@@]1(C)O` (stereo partly drawn): the IC50 with MRC-5 stood at 6.1 µM; in the data set with A549 (setting [7]) it was 10.3 ± 0.9 µM; in the data set on Hep-G2 (setting [8]) it was 8.5 ± 1.1 µM; in the data set on VERO (setting [9]), 16.9 ± 0.4 µM; in the data set with MDA-MB-231 (setting [10]), 11.8 ± 0.1 µM; in the data set with MCF-7 (setting [11]) it was 11.7 ± 0.4 µM.

With `CC[C@@H]1OC(=O)[C@@H](C)[C@H](OC2C[C@@](C)(OC)[C@@H](O)[C@H](C)O2)[C@@H](C)[C@H](O[C@H]2O[C@@H](C)C[C@@H](N(C)Cc3ccc(-c4cn(CCCNC(=O)CCCC[C@H]5CCSS5)nn4)cc3)[C@@H]2O)C(C)(O)C[C@H](C)CN(C)[C@@H](C)[C@H](O)[C@@]1(C)O` (stereo partly drawn), the IC50 with MRC-5 turned out to be 24.5 ± 2.6 µM; in the data set with A549 (setting [7]) it was 26.9 µM; in the data set on Hep-G2 (setting [8]), 14.4 ± 0.6 µM; in the data set on VERO (setting [9]) it was 40.3 ± 4.9 µM; in the data set on MDA-MB-231 (setting [10]), 21.3 ± 1.5 µM; in the data set on MCF-7 (setting [11]) it was 26.8 ± 7.1 µM.

For `CC[C@@H]1OC(=O)[C@@H](C)[C@H](O[C@H]2C[C@@](C)(OC)[C@@H](O)[C@H](C)O2)[C@@H](C)[C@H](O[C@H]2O[C@@H](C)C[C@@H](N(C)C)[C@@H]2OC(=O)/C=C/C(=O)OC)C(C)(O)C[C@H](C)CN(C)[C@@H](C)[C@H](O)[C@@]1(C)O` (stereo partly drawn), the IC50 with MRC-5 came to 68.3 µM; with A549 (setting [7]) it was 284 µM; with Hep-G2 (setting [8]) it was 118 µM; in the data set on VERO (setting [9]), 238 ± 29.1 µM; in the data set on MDA-MB-231 (setting [10]) it was 118 µM; with MCF-7 (setting [11]), 278 µM.

`CCCCOC(=O)/C=C/C(=O)O[C@@H]1[C@@H](O[C@H]2[C@H](C)[C@@H](O[C@H]3C[C@@](C)(OC)[C@@H](O)[C@H](C)O3)[C@H](C)C(=O)O[C@@H](CC)[C@](C)(O)[C@@H](O)[C@H](C)N(C)C[C@@H](C)CC2(C)O)O[C@@H](C)C[C@H]1N(C)C` (stereo partly drawn): the IC50 in the data set with MRC-5 turned out to be 43.6 ± 8.5 µM; in the data set on A549 (setting [7]), 141 ± 4.3 µM; with Hep-G2 (setting [8]) it was 63.6 ± 7.7 µM; in the data set with VERO (setting [9]), 126 ± 2.4 µM; with MDA-MB-231 (setting [10]), 29.6 ± 3 µM; with MCF-7 (setting [11]), 50 ± 1.5 µM.

With `CCCCOC(=O)/C=C/C(=O)N(C)[C@@H]1C[C@H](C)O[C@H](O[C@H]2[C@H](C)[C@@H](O[C@H]3C[C@@](C)(OC)[C@@H](O)[C@H](C)O3)[C@H](C)C(=O)O[C@@H](CC)[C@](C)(O)[C@@H](O)[C@H](C)N(C)C[C@@H](C)CC2(C)O)[C@H]1O` (stereo partly drawn), the IC50 in the data set with MRC-5 is 78.9 ± 2.6 µM; in the data set with A549 (setting [7]) it was 111 ± 4.6 µM; with Hep-G2 (setting [8]), 64.9 ± 2.4 µM; with VERO (setting [9]), 97.2 ± 15.5 µM; in the data set on MDA-MB-231 (setting [10]), 34.8 ± 2.8 µM; in the data set on MCF-7 (setting [11]), 39.3 ± 7.1 µM.

As for `COC(=O)/C=C/C(=O)OC` [Dimethyl Fumarate, reference compound], the IC50 in data set [1] was 259 µM; in the data set on A549 (setting [2]), over 500 µM; in the data set on Hep-G2 (setting [3]) it was over 500 µM; in the data set with VERO (setting [4]) it was 844 µM; in the data set with MDA-MB-231 (setting [5]), over 500 µM; in the data set on MCF-7 (setting [6]), over 500 µM.

Take `O=C(O)CCCCC1CCSS1` (stereo not drawn) [Lipoic acid (ALA), Lipoic acid, reference compound]: the IC50 (in data set [1]; in the data set on A549 (setting [2]); in the data set on Hep-G2 (setting [3]); in the data set on VERO (setting [4]); in the data set with MDA-MB-231 (setting [5]); in the data set with MCF-7 (setting [6])) was over 500 µM in each case.
